pKi: −log10 of the molar value.
Key:
Cannabinoid receptor 2 = Cannabinoid receptor 2 (Mus musculus, UniProt P47936); assay: Displacement of [3H]CP-55940 from cannabinoid CB2 receptor in mouse spleen membrane; type: cell membranes
Cannabinoid receptor 1 = Cannabinoid receptor 1 (Rattus norvegicus, UniProt P20272); type: cell membranes, Brain, Membrane
Cannabinoid receptor 1, sequence (P20272 whole entry): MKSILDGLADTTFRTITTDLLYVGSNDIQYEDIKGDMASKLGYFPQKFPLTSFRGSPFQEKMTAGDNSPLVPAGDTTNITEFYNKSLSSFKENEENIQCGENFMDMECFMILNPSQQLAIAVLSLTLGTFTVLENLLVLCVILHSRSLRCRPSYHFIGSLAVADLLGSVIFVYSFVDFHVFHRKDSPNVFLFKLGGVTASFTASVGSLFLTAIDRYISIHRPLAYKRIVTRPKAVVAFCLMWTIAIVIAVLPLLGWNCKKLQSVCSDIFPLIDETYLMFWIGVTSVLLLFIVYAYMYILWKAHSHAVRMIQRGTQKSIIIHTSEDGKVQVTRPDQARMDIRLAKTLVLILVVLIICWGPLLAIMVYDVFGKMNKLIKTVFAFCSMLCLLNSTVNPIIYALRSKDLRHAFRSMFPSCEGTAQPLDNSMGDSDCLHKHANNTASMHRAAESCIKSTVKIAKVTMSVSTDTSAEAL
Description: Displacement of [3H]CP-55940 from cannabinoid CB1 receptor in rat brain membrane in presence of phenylmethanesulfonyl fluoride

Cannabinoid receptor 2, sequence (P47936 whole entry): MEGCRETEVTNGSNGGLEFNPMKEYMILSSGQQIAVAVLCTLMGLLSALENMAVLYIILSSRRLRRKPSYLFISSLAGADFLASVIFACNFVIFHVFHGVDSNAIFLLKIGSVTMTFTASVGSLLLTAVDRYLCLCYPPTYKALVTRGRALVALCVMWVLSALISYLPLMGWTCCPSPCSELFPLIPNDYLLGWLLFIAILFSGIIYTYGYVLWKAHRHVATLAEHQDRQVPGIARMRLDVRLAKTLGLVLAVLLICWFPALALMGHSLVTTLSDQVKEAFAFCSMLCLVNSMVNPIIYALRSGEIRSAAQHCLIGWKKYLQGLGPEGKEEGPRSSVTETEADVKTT

| SMILES | pKi (Cannabinoid receptor 2) | pKi (Cannabinoid receptor 1) |
| --- | --- | --- |
| C[C@H](CO)NC(=O)CCC/C=C\C/C=C\C/C=C\C/C=C\CCCCCc1ccoc1 | 6.06 | 6.77 |
| C[C@H](CO)NC(=O)CCC/C=C\C/C=C\C/C=C\C/C=C\CCCc1ccccc1 | 6.27 | 7.16 |
| C[C@H](CO)NC(=O)CCC/C=C\C/C=C\C/C=C\C/C=C\Cc1ccccc1 | 6.08 | 6.46 |
| C[C@H](CO)NC(=O)CCC/C=C\C/C=C\C/C=C\C/C=C\CCCCc1cccc2ccccc12 | 5.40 | 6.17 |
| C[C@H](CO)NC(=O)CCC/C=C\C/C=C\C/C=C\C/C=C\CCCCc1ccc(Br)cc1 | 6.60 | 8.05 |
| C[C@H](CO)NC(=O)CCC/C=C\C/C=C\C/C=C\C/C=C\CCCCc1ccccc1Br |  | 6.77 |
| C[C@H](CO)NC(=O)CCC/C=C\C/C=C\C/C=C\C/C=C\CCCCCc1ccccc1 | 6.62 | 7.12 |
| C[C@H](CO)NC(=O)CCC/C=C\C/C=C\C/C=C\C/C=C\CCCCc1ccccc1 | 5.95 | 7.88 |
| Cc1cccc(CCCC/C=C\C/C=C\C/C=C\C/C=C\CCCC(=O)N[C@H](C)CO)c1 | 6.08 | 6.46 |
| C[C@H](CO)NC(=O)CCC/C=C\C/C=C\C/C=C\C/C=C\CCCCc1cccc(Br)c1 | 5.98 | 7.02 |
| C[C@H](CO)NC(=O)CCC/C=C\C/C=C\C/C=C\C/C=C\CCCCc1cccc(Cl)c1 | 6.22 | 7.05 |
| C[C@H](CO)NC(=O)CCC/C=C\C/C=C\C/C=C\C/C=C\CCCCc1cccc(I)c1 | 5.81 | 6.27 |
| C[C@H](CO)NC(=O)CCC/C=C\C/C=C\C/C=C\C/C=C\CCCCc1cccc(C(F)(F)F)c1 | 5.69 | 6.55 |
| C[C@H](CO)NC(=O)CCC/C=C\C/C=C\C/C=C\C/C=C\CCc1ccccc1 | 6.47 | 6.62 |
| C[C@H](CO)NC(=O)CCC/C=C\C/C=C\C/C=C\C/C=C\CCCCc1ccoc1 | 5.99 | 7.92 |
| C[C@H](CO)NC(=O)CCC/C=C\C/C=C\C/C=C\C/C=C\CCCCc1ccco1 | 6.13 | 6.49 |
| C[C@H](CO)NC(=O)CCC/C=C\C/C=C\C/C=C\C/C=C\CCCCCc1ccco1 | 5.49 | 6.25 |
